According to patent publication US20200046811A1, “METHODS AND COMPOSITIONS FOR MODULATING FGF23 LEVELS” (Northwestern University, priority 2014, published 2020):

Columns and labels:
[1] = target: T1, recombinant human stable PAI-1 (Homo sapiens, UniProt P05121, K177T/M377I/N173H/Q342L); experiment: In vitro FGF23 proteolysis by t-PA with PAI-1 and added TM5441; format: biochemical; settings: TM5441 added to t-PA + PAI-1 reaction, 4 hours at 37° C., silver stained SDS-PAGE, FIG. 3
T1 construct: purchased Molecular Innovations Inc., Novi, Mich
T1 sequence (P05121 24-402 N173H/K177T/Q342L/M377I): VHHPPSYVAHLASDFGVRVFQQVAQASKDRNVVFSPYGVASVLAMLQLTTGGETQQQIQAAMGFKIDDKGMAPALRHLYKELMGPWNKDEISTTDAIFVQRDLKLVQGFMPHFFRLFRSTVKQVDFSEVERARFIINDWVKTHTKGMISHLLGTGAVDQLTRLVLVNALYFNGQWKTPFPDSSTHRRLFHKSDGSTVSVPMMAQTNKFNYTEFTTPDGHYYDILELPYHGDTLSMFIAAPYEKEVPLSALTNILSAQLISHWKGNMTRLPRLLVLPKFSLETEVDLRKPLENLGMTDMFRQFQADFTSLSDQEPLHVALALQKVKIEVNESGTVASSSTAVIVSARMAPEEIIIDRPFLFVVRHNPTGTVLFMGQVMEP
Procedure: (§1) Recombinant human t-PA, uPA, and stable PAI-1 were obtained from Molecular Innovations Inc., Novi, Mich. Recombinant Human FGF23 was obtained from R and D Systems Inc., Minneapolis Minn.
TM5441 was obtained from Toshio Miyata, M. D., Ph.D. and Renascience, Inc. A stock solution of 2.5 mM was prepared in DMSO.
(§2) Gels were silver stained using the Pierce Silver Stain Kit from Thermo Fisher Scientific Inc. Waltham, Mass., according to the manufacturer's protocol.
Recombinant human FGF23 (1-1.5 μg) was incubated at 37° C. for 4 hours (or other time point indicated) with either recombinant human t-PA (1.1 μg) or uPA (1.1 μg), (in addition to 1.70 μg of recombinant human stable PAI-1 where indicated) in reaction buffer (25 μl final volume) containing: 50 mM Tris-HCl pH 8.0, 150 mM NaCl, 200 mM CHAPS, 0.1% PEG-8000, and 1% DMSO. To terminate the reaction, samples were incubated at 95° C. for 5 minutes in the presence of 1×NuPAGE LDS sample buffer and 1× NuPAGE sample reducing agent.

Klotho (kl/kl) mice = experiment: TM5441 treatment of Klotho mice, plasma FGF23 by ELISA; format: in vivo; settings: 100 mg/kg/day in chow for 120 days, C-Term ELISA (FIG. 1)
Procedure: Four week old Klotho (kl/kl) mice (n=11) were administered TM5441 at the dose of 100 mg/kg/day for 120 days. The chow diet containing the inhibitor was prepared by mixing a homogenous suspension of TM5441 made in 0.5% Carboxy Methyl Cellulose into the powder chow diet (Harland Teklad LM-485 number 7012). The plasma levels of FGF23 was measured using an ELISA kit (Immutopics, Inc. Mouse/Rat FGF-23 (C-Term) ELISA Kit, Cat. #60-6300) by following the manufacturer's protocol.

Recombinant human FGF23 = experiment: In vitro protease reactions: FGF23 proteolysis by t-PA or uPA (silver stained SDS-PAGE, western blot); format: biochemical
From the text: as §1
The 6×His tag antibody was obtained from Abcam Inc., Cambridge Mass., and the FGF23 antibody was obtained from Santa Cruz Biotechnology Inc., Dallas Tex. Secondary HRP conjugated donkey anti goat (cross-adsorbed) and goat anti-rabbit antibodies were obtained from Bethyl Laboratories Inc., Montgomery, Tex., and Molecular Innovations Inc. respectively. 4-12% NuPAGE Bis-Tris Gels, PVDF iblot gel transfer stacks, 4×NuPAGE LDS sample buffer and 10×NuPAGE sample reducing agent were from Life Technologies Inc., Carlsbad, Calif. Luminata Forte Western HRP Substrate detection reagent was from EMD Millipore Inc., Billerica, Mass.
as §2
Recombinant human FGF23 (1-1.5 μg) was incubated at 37° C. for 4 hours (or other time point indicated) with either recombinant human t-PA (1.1 μg) or uPA (1.1 μg), (in addition to 1.70 μg of recombinant human stable PAI-1 where indicated) in reaction buffer (25 μl final volume) containing: 50 mM Tris-HCl pH 8.0, 150 mM NaCl, 200 mM CHAPS, 0.1% PEG-8000, and 1% DMSO. […]

Molecule	Effect on PAI-1-inhibited FGF23 proteolysis by t-PA [1]	FGF23 plasma levels (Klotho (kl/kl) mice)	FGF23 proteolytic cleavage (smaller fragments on silver stained SDS-PAGE gel) (Recombinant human FGF23; 4 hours at 37° C., FIG. 2)	FGF23 fragments by western blot (Recombinant human FGF23; t-PA, various time points at 37° C., N-term and C-term fragments, FIG. 4)
O=C(COCC(=O)Nc1ccc(Cl)cc1C(=O)O)Nc1cccc(-c2ccoc2)c1 [TM5441]	restored	markedly reduced	–	–
t-PA: Recombinant human t-PA (tissue plasminogen activator) from Molecular Innovations Inc.	–	–	smaller fragments are generated	confirmed to be of FGF23 origin
